The compounds below were run on HBsAg (assay: HBsAg assay). Details: Hepatitis B virus, HepG2.2.15, 144 h, read-out: sAg EC50, μM, HepG2.2.15 cells, day 6.
Assay type: cell-based, hepatitis B virus
Experimental: Inhibition of HBsAg was determined in HepG2.2.15 cells. Cells were maintained in culture medium containing 10% fetal calf serum, […], Glutamine, penicillin/streptomycin. Cells were seeded in 96-well collagen-coated plate at a density of 30,000 cells/well. Serially diluted compounds were added to cells next day at the final DMSO concentration of 0.5%. Cells were incubated with compounds for 2-3 days, after which medium was removed. Fresh medium containing compounds was added to cells for additional 3-4 days. At day 6 after exposure of compounds, supernatant was collected, the HBsAg immunoassay (microplate-based chemiluminescence immunoassay kits, CLIA, Autobio Diagnosics Co., Zhengzhou, China, Catalog # CL0310-2) was used to determine the level of HBsAg according to manufactory instruction. Dose-response curves were generated and the EC50 value (effective concentrations that achieved 50% inhibitory effect) were determined using XLfit software. In addition, cells were seeded at a density of 5,000 cells/well for determination of cell viability in the presence and absence of compounds by using CellTiter-Glo reagent (Promega). Tables 1-3 show EC50 values obtained by the HBsAg assay for selected compounds.

Going from COCCCOc1cc2c(nc1OC)-c1cc(=O)c(C(=O)O)cn1C(C(C)C)C2 (centres unmarked) [Example 20, 6-Isopropyl-2-methoxy-3-(3-methoxypropoxy)-10-oxo-5,10-dihydro-6H-pyrido[1,2-h][1,7]naphthyridine-9-carboxylic acid] to COc1cc2c(nc1OC)-c1cc(=O)c(C(=O)O)cn1C(C(C)C)C2 (centres unmarked) [Example 23, 6-Isopropyl-2,3-dimethoxy-10-oxo-5,10-dihydro-6H-pyrido[1,2-h][1,7]naphthyridine-9-carboxylic acid], the EC50 rises from 0.005 µM to 0.019 µM (3.8-fold). The first is the more potent here.

First: COCCCOc1cc2c(nc1OC)-c1c(F)c(=O)c(C(=O)O)cn1[C@H](C(C)C)C2 [Example 26, (S)-11-Fluoro-6-isopropyl-2-methoxy-3-(3-methoxypropoxy)-10-oxo-5,10-dihydro-6H-pyrido[1,2-h][1,7]naphthyridine-9-carboxylic acid]
Second: COCCCOc1cc2c(cc1C)-c1cc(=O)c(C(=O)O)cn1[C@H](C(C)C)CO2 [Example 46, (R)-7-Isopropyl-3-(3-methoxypropoxy)-2-methyl-11-oxo-6,7-dihydro-11H-benzo[f]pyrido[1,2-d][1,4]oxazepine-10-carboxylic acid]
The EC50 of the first is 20-fold lower: 0.002 µM for the first, 0.039 µM for the second.

First: COCCCOc1cc2c(cc1Cl)-c1cc(=O)c(C(=O)O)cn1[C@H](C(C)C)CO2 [Example 27, (R)-2-Chloro-7-isopropyl-3-(3-methoxypropoxy)-11-oxo-6,7-dihydro-11H-benzo[f]pyrido[1,2-d][1,4]oxazepine-10-carboxylic acid]
Second: COCCCOc1cc2c(cc1Cl)-c1cc(=O)c(C(=O)O)cn1[C@@H](C(C)C)CO2 [Example 28, (S)-2-Chloro-7-isopropyl-3-(3-methoxypropoxy)-11-oxo-6,7-dihydro-11H-benzo[f]pyrido[1,2-d][1,4]oxazepine-10-carboxylic acid]
The EC50 of the first is 42-fold lower: 0.011 µM for the first, 0.46 µM for the second.

First: COCCOc1cc2c(cc1Cl)-c1cc(=O)c(C(=O)O)cn1C(C(C)C)CO2 (centres unmarked) [Example 29, 2-Chloro-7-isopropyl-3-(2-methoxyethoxy)-11-oxo-6,7-dihydro-11H-benzo[f]pyrido[1,2-d][1,4]oxazepine-10-carboxylic acid]
Second: COCCCOc1cc2c(cc1Cl)-c1cc(=O)c(C(=O)O)cn1C(C(C)C)CO2 (centres unmarked) [Example 33, 2-Chloro-7-isopropyl-3-(3-methoxypropoxy)-11-oxo-6,7-dihydro-11H-benzo[f]pyrido[1,2-d][1,4]oxazepine-10-carboxylic acid]
The EC50 of the first is 2.2-fold higher: 0.065 µM for the first, 0.029 µM for the second.

First: CCOC(=O)c1cn2c(cc1=O)-c1cc(Cl)c(O)cc1OCC2C(C)C (centres unmarked) [Example 32, Ethyl 2-chloro-3-hydroxy-7-isopropyl-11-oxo-6,7-dihydro-11H-benzo[f]pyrido[1,2-d][1,4]oxazepine-10-carboxylate]
Second: CC(C)[C@@H]1COc2cc(OCC3CC3)c(Cl)cc2-c2cc(=O)c(C(=O)O)cn21 [Example 35, (R)-2-Chloro-3-(cyclopropylmethoxy)-7-isopropyl-11-oxo-6,7-dihydro-11H-benzo[f]pyrido[1,2-d][1,4]oxazepine-10-carboxylic acid]
The EC50 of the first is 670-fold higher: 22 µM for the first, 0.033 µM for the second.

Compared with CC(C)[C@@H]1COc2cc(OCC(F)(F)F)c(Cl)cc2-c2cc(=O)c(C(=O)O)cn21 [Example 34, (R)-2-Chloro-7-isopropyl-11-oxo-3-(2,2,2-trifluoroethoxy)-6,7-dihydro-11H-benzo[f]pyrido[1,2-d][1,4]oxazepine-10-carboxylic acid], CC(C)[C@@H]1COc2cc(OCC(F)(F)F)c(C3CC3)cc2-c2cc(=O)c(C(=O)O)cn21 [Example 54, (R)-2-Cyclopropyl-7-isopropyl-11-oxo-3-(2,2,2-trifluoroethoxy)-6,7-dihydro-11H-benzo[f]pyrido[1,2-d][1,4]oxazepine-10-carboxylic acid] is 7.2-fold lower in EC50: 0.086 µM for the first, 0.012 µM for the second.

CC(C)[C@@H]1COc2cc(OCCCO)c(Cl)cc2-c2cc(=O)c(C(=O)O)cn21 [Example 36, (R)-2-Chloro-3-(3-hydroxypropoxy)-7-isopropyl-11-oxo-6,7-dihydro-11H-benzo[f]pyrido[1,2-d][1,4]oxazepine-10-carboxylic acid] and CC(C)[C@@H]1COc2cc(OCCCCO)c(Cl)cc2-c2cc(=O)c(C(=O)O)cn21 [Example 39, (R)-2-Chloro-3-(4-hydroxybutoxy)-7-isopropyl-11-oxo-6,7-dihydro-11H-benzo[f]pyrido[1,2-d][1,4]oxazepine-10-carboxylic acid] are within 1.5-fold of each other in EC50: 0.019 µM for the first, 0.014 µM for the second.

Going from CC(C)[C@@H]1COc2cc(OCC(C)(C)CO)c(Cl)cc2-c2cc(=O)c(C(=O)O)cn21 [Example 37, (R)-2-Chloro-3-(3-hydroxy-2,2-dimethylpropoxy)-7-isopropyl-11-oxo-6,7-dihydro-11H-benzo[f]pyrido[1,2-d][1,4]oxazepine-10-carboxylic acid] to CC(C)[C@@H]1COc2cc(OCCCNC(=O)OC(C)(C)C)c(Cl)cc2-c2cc(=O)c(C(=O)O)cn21 [Example 42, (R)-3-(3-((tert-Butoxycarbonyl)amino)propoxy)-2-chloro-7-isopropyl-11-oxo-6,7-dihydro-11H-benzo[f]pyrido[1,2-d][1,4]oxazepine-10-carboxylic acid], the EC50 rises from 0.012 µM to 0.042 µM (3.5-fold).

Compared with COCCCCOc1cc2c(cc1Cl)-c1cc(=O)c(C(=O)O)cn1[C@H](C(C)C)CO2 [Example 38, (R)-2-Chloro-7-isopropyl-3-(4-methoxybutoxy)-11-oxo-6,7-dihydro-11H-benzo[f]pyrido[1,2-d][1,4]oxazepine-10-carboxylic acid], CCc1cc2c(cc1OCCCOC)OC[C@@H](C(C)C)n1cc(C(=O)O)c(=O)cc1-2 [Example 47, (R)-2-Ethyl-7-isopropyl-3-(3-methoxypropoxy)-11-oxo-6,7-dihydro-11H-benzo[f]pyrido[1,2-d][1,4]oxazepine-10-carboxylic acid] is 2.8-fold lower in EC50: 0.017 µM for the first, 0.006 µM for the second.

CC(C)[C@@H]1COc2cc(OCCCN3CCOCC3)c(Cl)cc2-c2cc(=O)c(C(=O)O)cn21 [Example 40, (R)-2-Chloro-7-isopropyl-3-(3-morpholinopropoxy)-11-oxo-6,7-dihydro-11H-benzo[f]pyrido[1,2-d][1,4]oxazepine-10-carboxylic acid] and CC(C)[C@@H]1COc2cc(OCCOCCBr)c(Cl)cc2-c2cc(=O)c(C(=O)O)cn21 [Example 41, (R)-3-(2-(2-Bromoethoxy)ethoxy)-2-chloro-7-isopropyl-11-oxo-6,7-dihydro-11H-benzo[f]pyrido[1,2-d][1,4]oxazepine-10-carboxylic acid] are within 1.5-fold of each other in EC50: 0.14 µM for the first, 0.1 µM for the second.

First: COCCCOc1cc2c(cc1Cl)-c1cc(=O)c(C(=O)O)cn1[C@H](CCO)CO2 [Example 43, (R)-2-Chloro-7-(2-hydroxyethyl)-3-(3-methoxypropoxy)-11-oxo-6,7-dihydro-11H-benzo[f]pyrido[1,2-d][1,4]oxazepine-10-carboxylic acid]
Second: C=Cc1cc2c(cc1OCCCOC)OC[C@@H](C(C)C)n1cc(C(=O)O)c(=O)cc1-2 [Example 48, (R)-7-Isopropyl-3-(3-methoxypropoxy)-11-oxo-2-vinyl-6,7-dihydro-11H-benzo[f]pyrido[1,2-d][1,4]oxazepine-10-carboxylic acid]
The EC50 of the first is 87-fold higher: 0.35 µM for the first, 0.004 µM for the second. The second is the more potent here.

Going from CC(C)COc1cc2c(cc1C1CC1)-c1cc(=O)c(C(=O)O)cn1[C@H](C(C)C)CO2 [Example 44, (R)-2-Cyclopropyl-3-isobutoxy-7-isopropyl-11-oxo-6,7-dihydro-11H-benzo[f]pyrido[1,2-d][1,4]oxazepine-10-carboxylic acid] to Cc1cc2c(cc1OCC(C)C)OC[C@@H](C(C)C)n1cc(C(=O)O)c(=O)cc1-2 [Example 51, (R)-3-Isobutoxy-7-isopropyl-2-methyl-11-oxo-6,7-dihydro-11H-benzo[f]pyrido[1,2-d][1,4]oxazepine-10-carboxylic acid], the EC50 rises from 0.006 µM to 0.015 µM (2.5-fold). The first is the more potent here.

First: COCCCOc1cc2c(cc1C1CC1)-c1cc(=O)c(C(=O)O)cn1[C@H](C(C)C)CO2 [Example 45, (R)-2-Cyclopropyl-7-isopropyl-3-(3-methoxypropoxy)-11-oxo-6,7-dihydro-11H-benzo[f]pyrido[1,2-d][1,4]oxazepine-10-carboxylic acid]
Second: CC(C)[C@@H]1COc2cc(OCCCNC(=O)OC(C)(C)C)c(C3CC3)cc2-c2cc(=O)c(C(=O)O)cn21 [Example 53, (R)-3-(3-((tert-Butoxycarbonyl)amino)propoxy)-2-cyclopropyl-7-isopropyl-11-oxo-6,7-dihydro-11H-benzo[f]pyrido[1,2-d][1,4]oxazepine-10-carboxylic acid]
The EC50 of the first is 2.2-fold lower: 0.006 µM for the first, 0.013 µM for the second.

Compared with Cc1cc2c(cc1OCC1CC1)OC[C@@H](C(C)C)n1cc(C(=O)O)c(=O)cc1-2 [Example 49, (R)-3-(Cyclopropylmethoxy)-7-isopropyl-2-methyl-11-oxo-6,7-dihydro-11H-benzo[f]pyrido[1,2-d][1,4]oxazepine-10-carboxylic acid], CCc1cc2c(cc1OCC1CC1)OC[C@@H](C(C)C)n1cc(C(=O)O)c(=O)cc1-2 [Example 50, (R)-3-(Cyclopropylmethoxy)-2-ethyl-7-isopropyl-11-oxo-6,7-dihydro-11H-benzo[f]pyrido[1,2-d][1,4]oxazepine-10-carboxylic acid] is 4.5-fold lower in EC50: 0.049 µM for the first, 0.011 µM for the second. The second is the more potent here.

Compound CCc1cc2c(cc1OCC(C)C)OC[C@@H](C(C)C)n1cc(C(=O)O)c(=O)cc1-2 [Example 52, (R)-2-Ethyl-3-isobutoxy-7-isopropyl-11-oxo-6,7-dihydro-11H-benzo[f]pyrido[1,2-d][1,4]oxazepine-10-carboxylic acid] has an EC50 of 0.007 µM.

— patent publication US11013726B2 (Arbutus Biopharma Corporation, priority 2016, dated 2021)
